Measured values published in US20090099169A1, “Benzofuran Compounds As EP1 Receptor Antagonists” (GLAXO GROUP LIMITED, priority 2006, published 2009).
Where a name gives a salt, the structure may show the parent alone.

Experiments:
human EP3 receptor = target: T1, human EP3 receptor (Homo sapiens, UniProt P43115); experiment: human EP3 calcium mobilisation assay; format: cell-based; settings: CHO-K1 cells, antagonism of PGE2; averages of a number of experiments; read-out: functional pKi value (human EP3 calcium mobilisation assay) (converted)
T1 construct: expressed in transfected cells; host or cells: CHO-K1
T1 sequence (P43115 1-390): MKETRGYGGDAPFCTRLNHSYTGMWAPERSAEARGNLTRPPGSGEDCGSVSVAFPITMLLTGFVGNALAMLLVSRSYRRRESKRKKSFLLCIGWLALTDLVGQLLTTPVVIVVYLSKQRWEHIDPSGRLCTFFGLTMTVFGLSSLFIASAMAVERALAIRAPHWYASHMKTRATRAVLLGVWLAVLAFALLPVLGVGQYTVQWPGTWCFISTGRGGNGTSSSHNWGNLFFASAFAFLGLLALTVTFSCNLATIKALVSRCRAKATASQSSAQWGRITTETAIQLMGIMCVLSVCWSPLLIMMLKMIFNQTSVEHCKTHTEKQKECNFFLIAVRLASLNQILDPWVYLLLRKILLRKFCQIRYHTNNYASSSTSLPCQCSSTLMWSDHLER
Method: (§1) Briefly, the antagonist properties of compounds are assessed by their ability to inhibit the mobilisation of intracellular calcium ([Ca^2+]i) in response to activation of EP1 or EP3 receptors by the natural agonist hormone prostaglandin E2 (PGE2). Increasing concentrations of antagonist reduce the amount of calcium that a given concentration of PGE2 can mobilise. The net effect is to displace the PGE2 concentration-effect curve to higher concentrations of PGE2. The amount of calcium produced is assessed using a calcium-sensitive fluorescent dye such as Fluo-4, AM and a suitable instrument such as a Fluorimetric Imaging Plate Reader (FLIPR). Increasing amounts of [Ca^2+]i produced by receptor activation increase the amount of fluorescence produced by the dye and give rise to an increasing signal. The signal may be detected using the FLIPR instrument and the data generated may be analysed with suitable curve-fitting software.
(§2) The human EP1 or EP3 calcium mobilisation assay (hereafter referred to as ‘the calcium assay’) utilises Chinese hamster ovary-K1 (CHO-K1) cells into which a stable (PCIN; BioTechniques 20 (1996): 102-110) vector containing either EP1 or EP3 cDNA has previously been transfected. Cells are cultured in suitable flasks containing culture medium such as DMEM:F-12 supplemented with 10% v/v foetal calf serum, 2 mM L-glutamine, 0.25 mg/ml geneticin, 100 μM flurbiprofen and 10 μg/ml puromycin.
(§3) For assay, cells are harvested using a proprietary reagent that dislodges cells such as Versene. Cells are re-suspended in a suitable quantity of fresh culture media for introduction into a 384-well plate. Following incubation for 24 hours at 37° C. the culture media is replaced with a medium containing Fluo-4 and the detergent pluronic acid, and a further incubation takes place. Concentrations of compounds are then added to the plate in order to construct concentration-effect curves. This may be performed on the FLIPR in order to assess the agonist properties of the compounds. Concentrations of PGE2 are then added to the plate in order to assess the antagonist properties of the compounds.
The data so generated may be analysed by means of a computerised curve-fitting routine. The concentration of compound that elicits a half-maximal inhibition of the calcium mobilisation induced by PGE2 (pIC50) may then be estimated.

human EP1 receptor [1] = target: T2, human EP1 receptor (Homo sapiens, UniProt P34995); experiment: human EP1 calcium mobilisation assay; format: cell-based; parameters: expressed in transfected cells; settings: CHO-K1 cells, antagonism of PGE2; averages of a number of experiments; read-out: functional pKi value (human EP1 calcium mobilisation assay) (converted)
T2 sequence (P34995 1-402): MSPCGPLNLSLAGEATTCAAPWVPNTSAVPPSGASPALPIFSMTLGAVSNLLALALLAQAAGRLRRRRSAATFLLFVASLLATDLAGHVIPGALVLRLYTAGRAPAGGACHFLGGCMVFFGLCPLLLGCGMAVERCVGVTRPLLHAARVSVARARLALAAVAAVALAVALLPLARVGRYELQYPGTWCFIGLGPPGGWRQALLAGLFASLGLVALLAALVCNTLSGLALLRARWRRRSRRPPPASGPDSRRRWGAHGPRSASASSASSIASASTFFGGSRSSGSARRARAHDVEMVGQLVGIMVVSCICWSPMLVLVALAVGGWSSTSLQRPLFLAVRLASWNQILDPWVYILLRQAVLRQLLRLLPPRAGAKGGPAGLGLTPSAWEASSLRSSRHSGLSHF
Summary of the method: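 CHO-K1 cells stably transfected with human EP1 or EP3, loaded with Fluo-4 after 24 h culture, treated with compound, then challenged with PGE2. Calcium-driven fluorescence read on FLIPR; pIC50 is half-maximal inhibition of PGE2-induced calcium mobilisation, from curve fitting.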

human EP1 receptor [2] = target: T2, human EP1 receptor; experiment: Binding assay for the human prostanoid EP1 receptor (radioligand competition); parameters: expressed in transfected cells; host or cells: CHO-K1 (membranes); settings: CHO-K1 membranes; [3H]-PGE2 for Examples 1-17, 19, 33, 34, 60 and 61, 3-{2-[5-Bromo-2-(2,4-difluorobenzyloxy)-phenyl]-5-methyl-pyrrol-1-yl}-6-[3H3-methoxy]methoxy-benzoic acid for the remaining; averages of a number of experiments; read-out: pIC50 value (binding assay for the human prostanoid EP1 receptor) (converted)
Summary of the method: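 Membranes from CHO-K1 cells stably expressing human EP1, in pH 6 MES buffer with 10 mM MgCl2. Competition with [3H]-PGE2 (3 nM final) for 30 min at 30 °C, or alternatively with a tritiated benzoic-acid ligand (0.2 nM final) for 45 min at 37 °C; filtration and scintillation counting, IC50 by non-linear fitting.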

[3] = system: rat model of chronic constriction injury; settings: Anesthesia and Analgesia 2001, 93, 1012-7; cited from earlier work
[4] = system: rodent model of post-operative pain; settings: Anesthesia and Analgesia 2001, 92, 233-238; cited from earlier work
human TP receptor = target: T3, human TP receptor (Homo sapiens, UniProt P21731); experiment: human TP calcium mobilisation assay; format: cell-based; settings: CHO-K1 cells, antagonism of U46619; averages of a number of experiments; read-out: functional pKi value (human TP calcium mobilisation assay) (converted)
T3 construct: expressed in transfected cells; host or cells: CHO-K1
T3 sequence (P21731 1-343): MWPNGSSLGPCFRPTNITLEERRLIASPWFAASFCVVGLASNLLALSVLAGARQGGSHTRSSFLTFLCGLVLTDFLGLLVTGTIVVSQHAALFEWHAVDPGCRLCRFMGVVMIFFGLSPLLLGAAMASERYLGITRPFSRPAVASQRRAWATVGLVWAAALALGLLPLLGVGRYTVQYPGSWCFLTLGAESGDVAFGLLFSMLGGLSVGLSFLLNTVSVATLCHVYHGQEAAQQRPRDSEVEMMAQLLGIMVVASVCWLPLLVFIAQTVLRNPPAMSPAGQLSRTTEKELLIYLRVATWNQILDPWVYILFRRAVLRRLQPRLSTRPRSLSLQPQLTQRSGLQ
Method: as §1, with “To determine if a compound has agonist or antagonist activity at the TP receptor a functional calcium mobilisation assay may be performed. Briefly,” for “Briefly,”, “TP” for “EP1 or EP3”, “stable TXA2 mimetic U46619 (9,11-dideoxy-11α,9α-epoxy-methanoprostaglandin F2α; commercially available from e.g Sigma-Aldrich).” for “natural agonist hormone prostaglandin E2 (PGE2).”, “U46619” for “PGE2”, “curve.” for “curve to higher concentrations of PGE2.”, “software. The agonist activity of the compounds are determined by their ability to cause an increase in intracellular mobilisation in the absence of U46619.” for “software.”
as §2, with “TP” for “EP1 or EP3”, “assay” for “assay (hereafter referred to as ‘the calcium assay’)”, “(pCIN;” for “(PCIN;”, “TP” for “either EP1 or EP3”
as §3, with “96-well” for “384-well”, “U46619” for “PGE2”
The data so generated may be analysed by means of a computerised curve-fitting routine. The concentration of compound that elicits a half-maximal inhibition of the calcium mobilisation induced by U46619 (pIC50) may then be estimated, and the percentage activation caused by the compounds directly can be used to determine if there is any agonism present.

[5] = system: gastric lesions induced by taurocholate acid, aspirin or indomethacin; settings: rats, Ogletree et al 1992; cited from earlier work

Row | Structure (SMILES) | Ki (human EP3 receptor) | Ki (human EP1 receptor [1]) | IC50 (human EP1 receptor [2]) | Ki (human TP receptor) | hyperalgesia and allodynia [3] | mechanical hyperalgesia [4] | gastric lesions [5]
1 | Cc1cc(C(=O)O)nn1Cc1cc(S(C)(=O)=O)cc2cc(C(C)C)oc12 [Example 22, 5-methyl-1-{[2-(1-methylethyl)-5-(methylsulfonyl)-1-benzofuran-7-yl]methyl}-1H-pyrazole-3-carboxylic Acid] | 0.501 to 10 µM | ≤ 316 nM | ≤ 100 nM |  |  |  | 
2 | Cc1cc(Cl)ccc1S(=O)(=O)NC[C@H]1C2CCC(CC2)[C@@H]1/C=C\CCCC(=O)O [ONO-8711] |  |  |  |  | reduces hyperalgesia and allodynia | inhibits mechanical hyperalgesia | 
3 | CC(C)c1cc2cc(Cl)cc(Cc3ccc(C(=O)Nc4c(F)cccc4F)o3)c2o1 [Example 8, 5-{[5-Chloro-2-(1-methylethyl)-1-benzofuran-7-yl]methyl}-N-(2,6-difluorophenyl)-2-furancarboxamide] | 0.501 to 10 µM |  |  | > 3.16 µM |  |  | 
4 | CC(C)c1cc2cc(Cl)cc(Cc3ccc(-c4nc5ccccc5[nH]4)o3)c2o1 [Example 2, 2-(5-{[5-Chloro-2-(1-methylethyl)-1-benzofuran-7-yl]methyl}-2-furanyl)-1H-benzimidazole Hydrochloride] |  |  | ≤ 100 nM | > 3.16 µM |  |  | 
5 | CC(C)c1cc2cc(Cl)cc(Cc3cccc(C(=O)NN4CCOCC4)n3)c2o1 [Example 44, 6-{[5-Chloro-2-(1-methylethyl)-1-benzofuran-7-yl]methyl}-N-4-morpholinyl-2-pyridinecarboxammide] | 0.501 to 10 µM | ≤ 316 nM | ≤ 100 nM |  |  |  | 
6 | O=C(O)Cc1ccc(CCNS(=O)(=O)c2ccc(Cl)cc2)cc1 [BM 13505] |  |  |  |  |  |  | inhibit gastric lesions
7 | Cc1cc(C(=O)O)nn1Cc1cc(Cl)cc2cc(C3CCCCC3)oc12 [Example 26, 1-[(5-Chloro-2-cyclohexyl-1-benzofuran-7-yl)methyl]-5-methyl-1H-pyrazole-3-carboxylic Acid] | 0.501 to 10 µM | ≤ 316 nM | ≤ 100 nM |  |  |  | 

More lines, main results first:

Row | Ki (human EP3 receptor) | Ki (human EP1 receptor [1]) | IC50 (human EP1 receptor [2]) | Ki (human TP receptor) | Structure (SMILES) | hyperalgesia and allodynia [3] | mechanical hyperalgesia [4] | gastric lesions [5]
8 | 0.501 to 10 µM | ≤ 316 nM | ≤ 100 nM |  | CC(C)c1cc2cc(Cl)cc(Cc3ccc(C(=O)Nc4ccc(CN5CCC(O)CC5)cc4)o3)c2o1 [Example 55, 5-{[5-Chloro-2-(1-methylethyl)-1-benzofuran-7-yl]methyl}-N-{4-[(4-hydroxy-1-piperidinyl)methyl]phenyl}-2-furancarboxamide Hydrochloride] |  |  | 
9 | 0.501 to 10 µM | ≤ 316 nM | ≤ 100 nM |  | CC(C)c1cc2cc(Cl)cc(Cc3ccc(C(=O)Nc4ccc(CO)cc4)o3)c2o1 [Example 72, 5-{[5-Chloro-2-(1-methylethyl)-1-benzofuran-7-yl]methyl}-N-[4-(hydroxymethyl)phenyl]-2-furancarboxamide] |  |  | 
10 | 0.501 to 10 µM | ≤ 316 nM | ≤ 100 nM |  | Cc1cc(C(=O)Nc2ccc(CO)cc2)nn1Cc1cc(Br)cc2cc(C(C)C)oc12 [Example 71] |  |  | 
11 | 0.501 to 10 µM | ≤ 316 nM | ≤ 100 nM |  | Cc1cc(C(=O)Nc2ccc(CN3CCCC3)cc2)nn1Cc1cc(Br)cc2cc(C(C)C)oc12 [Example 51, 1-{[5-Bromo-2-(1-methylethyl)-1-benzofuran-7-yl]methyl}-5-methyl-N-[4-(1-pyrrolidinylmethyl)phenyl]-1H-pyrazole-3-carboxamidehydrochloride] |  |  | 
